Test results reported in US20120035247A1, “RNA Interference Mediated Inhibition of Signal Transducer and Activator of Transcription 6 (STAT6) Gene Expression Using Short Interfering Nucleic Acid (siNA)” (Merck Sharp & Dohme Corp., priority 2009, published 2012).
[invAb] = inverted abasic unit; d = 2'-deoxy (DNA); m = 2'-O-methyl; r = 2'-OH (RNA); f = 2'-fluoro

Key:
STAT6 mRNA [1] = experiment: STAT6 siNA screen and dose response in human A549 cells, STAT6 mRNA by quantitative RT-PCR (Taqman); assay type: cell-based; settings: human A549 cells, 10 nM siNA, 24 hrs, normalized to GAPDH and non-targeting control, mean ± S.D., n = 3
Experimental: A549 (human; ATCC cat# CCL-185): Cells were cultured at 37° C. in the presence of 5% CO2 and grown in Ham's F12K medium with 2 mM L-glutamine adjusted to contain 1.5 g/L sodium bicarbonate and supplemented with fetal bovine serum at a final concentration of 10%, 100 μg/mL of streptomycin, and 100 U/mL penicillin.
(§1) Cells were plated in all wells of a tissue-culture treated, 96-well plate at a final count of 5000 cells/well in […], of the appropriate culture media. The cells were cultured for 24 hours after plating at 37° C. in the presence of 5% CO2.
(§2) After 24 hours, complexes containing siNA and RNAiMax were created as follows: A solution of RNAiMax diluted 33-fold in OPTI-MEM was prepared. In parallel, solutions of the siNAs for testing were prepared to a final concentration of 120 nM in OPTI-MEM. After incubation of RNAiMax/OPTI-MEM solution at room temperature for 5 min, an equal volume of the siNA solution and the RNAiMax solution were added together for each of the siNAs.
(§3) This solution was incubated at room temperature for 20 minutes. After incubation, 20 uL of the solution was added to each of the relevant wells. The final concentration of siNA in each well was 10 nM and the final volume of RNAiMax in each well was 0.3u1.
(§4) The time of incubation with the RNAiMax-siNA complexes was 24 hours and there was no change in media between transfection and harvesting, unless otherwise indicated.
(§5) RNA was extracted from a 96-well plate using the TaqMan® Gene Expression Cells-to-CT™ Kit (Cat#4399002) with a modified protocol. Briefly, a 60 uL (1 plate) or 110 uL (2 plates) of the Lysis Solution with DNase I was dispensed into each well of the Lysis Buffer Plate (twin.tec full skirt plate). The lysis buffer and stop plates were stored at 4° C. until the cells were washed.
(§6) The plate was spun at 1100 rpm for 5 minutes. The culture medium was aspirated and discarded from the wells of the culture plate. The lysis was performed automatically using a BioMek FX instrument and method. After the Biomek method was completed, the lysis plate was incubated for 2 min. at room temperature. The lysis plate can be stored for 2 hours at 4° C., or at −20° C. or −80° C. for two months.
(§7) Each well of the reverse transcription plate required 10 uL of 2× reverse transcriptase Buffer, luL of 20× reverse transcription enzyme and 2 uL of nuclease-free water. The reverse transcription master mix was prepared by mixing 2× reverse transcription buffer, 20× reverse transcription enzyme mix, and nuclease-free water. 13 uL of the reverse transcription master mix was dispensed into each well of the reverse transcription plate (semi-skirted). A separate reverse transcription plate was prepared for each cell plate. The plate was loaded onto a Biomek NX or Biomek FX Dual-96 and the Biomek method was run. The program is programmed to automatically added 7 uL of lysate from the cell lysis procedure described above into each well of the reverse transcription plate. The plate is sealed and spun on a centrifuge (1000 rpm for 30 seconds) to settle the contents to the bottom of the reverse transcription plate. The plate is placed in a thermocycler at 37° C. for 60 min, 95° C. for 5 min, and 4° C. until the plate is removed from the thermocycler. Upon removal, if not used immediately, the plate was frozen at −20° C.
(§8) A series of probes and primers were used to detect the various mRNA transcripts of the genes of 13-Actin (human cell line only), and of STATE and GAPDH in mouse and human cell lines. All Taqman probes and primers for the experiments here-in described were supplied as pre-validated sets by Applied Biosystems, Inc. (see Table 2).
The assays were performed on an ABI 7900 instrument, according to the manufacturer's instructions. A TaqMan Gene Expression Master Mix (provided in the Cells-to-CTT™, Applied Biosystems, Cat #4399002) was used. The PCR reactions were carried out at 50° C. for 2 min, 95° C. for 20 min followed by 40 cycles at 95° C. for 15 secs and 60° C. for 1 min. […]

STAT6 mRNA [2] = experiment: STAT6 siNA screen in mouse NIH 3T3 cells, STAT6 mRNA by quantitative RT-PCR (Taqman); assay type: cell-based; settings: mouse NIH3T3 cells, 10 nM siNA, 24 hrs, normalized to GAPDH and non-targeting control, n = 2
Experimental: NIH 3T3 (mouse; ATCC cat# CRL-1658): Cells were cultured at 37° C. in the presence of 5% CO2 and grown in Dulbecco's modified Eagle's medium (DMEM) with 4 mM L-glutamine adjusted to contain 1.5 g/L sodium bicarbonate and 4.5 g/L glucose and supplemented with fetal bovine serum at a final concentration of 10%, 100 μg/mL of streptomycin, and 100 U/mL penicillin.
as §1, §2, §3, §4, §5, §6, §7, §8
The assays were performed on an ABI 7900 instrument, according to the manufacturer's instructions. A TaqMan Gene Expression Master Mix (provided in the Cells-to-CTT™, Applied Biosystems, Cat #4399002) was used. […]

Substance	% KD STAT6 (STAT6 mRNA [1]) [%]	% KD STAT6 (STAT6 mRNA [2]) [%]
30029-DC: STAT6 siNA duplex; sense SEQ ID NO: 122, antisense SEQ ID NO: 123; target GUGUCCUGGACCUCACCAA, site 1830 (sense GUGUCCUGGACCUCACCAATT; antisense UUGGUGAGGUCCAGGACACUU; sense: DNA at AGT, 2'-fluoro at CU, [invAb] at 5' end, 3' end, backbone not given here; antisense: sugars from the 5' end rrrmfmmmmfffmmmmfmfmm, backbone not given here) [STAT6 siNA duplex; target GUGUCCUGGACCUCACCAA, site 1830]	13.2 ± 7.8	−17.5 ± 12.8
30010-DC: STAT6 siNA duplex; sense SEQ ID NO: 84, antisense SEQ ID NO: 85; target GGGACAAUGCCUUCUCUGA, site 1568 (sense GGGACAAUGCCUUCUCUGATT; antisense UCAGAGAAGGCAUUGUCCCUU; sense: sugars from the 5' end dddrfddfdffffffffdddd, [invAb] at 5' end, 3' end, backbone not given here; antisense: sugars from the 5' end rrrmmmmmmmfmffmffffmm, backbone not given here) [STAT6 siNA duplex; target GGGACAAUGCCUUCUCUGA, site 1568]	6 ± 23.6	−26.2 ± 0.2
30015-DC: STAT6 siNA duplex; sense SEQ ID NO: 94, antisense SEQ ID NO: 95; target CUCAGAUGUGACUAUGGUA, site 2544 (sense CUCAGAUGUGACUAUGGUATT; antisense UACCAUAGUCACAUCUGAGUU; sense: DNA at AGT, 2'-fluoro at CU, [invAb] at 5' end, 3' end, backbone not given here; antisense: sugars from the 5' end rrrfmfmmffmfmfffmmmmm, backbone not given here) [STAT6 siNA duplex; target CUCAGAUGUGACUAUGGUA, site 2544]	65.5 ± 7.6	81.6 ± 3.7
29993-DC: STAT6 siNA duplex; sense SEQ ID NO: 50, antisense SEQ ID NO: 51; target CCCUUGAGAGCAUAUAUCA, site 519 (sense CCCUUGAGAGCAUAUAUCATT; antisense UGAUAUAUGCUCUCAAGGGUU; sense: DNA at AGT, 2'-fluoro at CU, [invAb] at 5' end, 3' end, backbone not given here; antisense: sugars from the 5' end rrrfmfmfmffmfmmmmmmmm, backbone not given here) [STAT6 siNA duplex; target CCCUUGAGAGCAUAUAUCA, site 519]	24.4 ± 8.1	−23.4 ± 1.6
30009-DC: STAT6 siNA duplex; sense SEQ ID NO: 82, antisense SEQ ID NO: 83; target GCUUUGCUCAGAUGUGACU, site 2538 (sense GCUUUGCUCAGAUGUGACUTT; antisense AGUCACAUCUGAGCAAAGCUU; sense: DNA at AGT, 2'-fluoro at CU, [invAb] at 5' end, 3' end, backbone not given here; antisense: sugars from the 5' end rrrfmfmfffmmmfmmmmfmm, backbone not given here) [STAT6 siNA duplex; target GCUUUGCUCAGAUGUGACU, site 2538]	63.5 ± 4.6	72.7 ± 5.4
30006-DC: STAT6 siNA duplex; sense SEQ ID NO: 76, antisense SEQ ID NO: 77; target CCACUAUCCUGUGGGACAA, site 1542 (sense CCACUAUCCUGUGGGACAATT; antisense UUGUCCCACAGGAUAGUGGUU; sense: DNA at AGT, 2'-fluoro at CU, [invAb] at 5' end, 3' end, backbone not given here; antisense: sugars from the 5' end rrrffffmfmmmmfmmfmmmm, backbone not given here) [STAT6 siNA duplex; target CCACUAUCCUGUGGGACAA, site 1542]	72.9 ± 1.7	−27.4 ± 8.5
30003-DC: STAT6 siNA duplex; sense SEQ ID NO: 70, antisense SEQ ID NO: 71; target CGUGGAAAGGGACCAACCA, site 2218 (sense CGUGGAAAGGGACCAACCATT; antisense UGGUUGGUCCCUUUCCACGUU; sense: DNA at AGT, 2'-fluoro at CU, [invAb] at 5' end, 3' end, backbone not given here; antisense: sugars from the 5' end rrrffmmfffffffffmfmmm, backbone not given here) [STAT6 siNA duplex; target CGU…, site 2218]	−11.1 ± 23.2	−22.6 ± 6.6
30021-DC: STAT6 siNA duplex; sense SEQ ID NO: 106, antisense SEQ ID NO: 107; target GUCAAUGGUCCUGGUCCAA, site 793 (sense GUCAAUGGUCCUGGUCCAATT; antisense UUGGACCAGGACCAUUGACUU; sense: DNA at AGT, 2'-fluoro at CU, [invAb] at 5' end, 3' end, backbone not given here; antisense: sugars from the 5' end rrrmmffmmmmffmffmmfmm, backbone not given here) [STAT6 siNA duplex; target GUCAAUGGUCCUGGUCCAA, site 793]	17.2 ± 7.5	−7 ± 7.2
30028-DC: STAT6 siNA duplex; sense SEQ ID NO: 120, antisense SEQ ID NO: 121; target CUGCCAAAGACCUGUCCAU, site 2049 (sense CUGCCAAAGACCUGUCCAUTT; antisense AUGGACAGGUCUUUGGCAGUU; sense: DNA at AGT, 2'-fluoro at CU, [invAb] at 5' end, 3' end, backbone not given here; antisense: sugars from the 5' end rrrmmfmmmfffffmmfmmmm, backbone not given here) [STAT6 siNA duplex; target CU…UGUCCAU, site 2049]	29.5 ± 6.4	31.1 ± 4.3
29991-DC: STAT6 siNA duplex; sense SEQ ID NO: 46, antisense SEQ ID NO: 47; target CAGCCAAAGCCCUAGUGCU, site 846 (sense CAGCCAAAGCCCUAGUGCUTT; antisense AGCACUAGGGCUUUGGCUGUU; sense: DNA at AGT, 2'-fluoro at CU, [invAb] at 5' end, 3' end, backbone not given here; antisense: sugars from the 5' end rrrmffmmmmffffmmffmmm, backbone not given here) [STAT6 siNA duplex; target …UAGUGCU, site 846]	−2.1 ± 17.7	−30 ± 9.2
